From paper PMC3694296, “11β-Hydroxysteroid dehydrogenase type 1 contributes to the balance between 7-keto- and 7-hydroxy-oxysterols in vivo” (Biochemical Pharmacology, 2013)

What was measured:
[1] = biological target: T1, 11β-hydroxysteroid dehydrogenase type 1 (murine 11βHSD1, m11βHSD1) (Mus musculus, UniProt P50172); assay: competitive inhibition of 11-DHC reduction by recombinant enzyme (Dixon plot, HPLC); also itself reduced as a poor substrate (Km […]); format: biochemical
T1 construct: gene Hsd11b1; truncated form of recombinant m11βHSD1 protein (N23Δ)

[2] = biological target: T1, 11β-hydroxysteroid dehydrogenase type 1 (murine 11βHSD1, m11βHSD1); assay: competitive inhibition of corticosterone oxidation by recombinant enzyme (Dixon plot, HPLC); also itself oxidised as a poor substrate (Km […]); format: biochemical

T1 sequence (P50172 24-292): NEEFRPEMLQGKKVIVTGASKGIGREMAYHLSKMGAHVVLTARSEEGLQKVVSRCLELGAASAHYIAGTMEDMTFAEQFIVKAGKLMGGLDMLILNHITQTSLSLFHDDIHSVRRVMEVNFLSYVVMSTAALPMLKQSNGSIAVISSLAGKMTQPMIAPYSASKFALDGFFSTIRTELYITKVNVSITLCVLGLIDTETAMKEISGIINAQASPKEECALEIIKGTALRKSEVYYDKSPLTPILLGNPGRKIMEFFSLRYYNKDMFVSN

## CC(C)CCC[C@@H](C)[C@H]1CC[C@H]2[C@@H]3C(=O)C=C4C[C@@H](O)CC[C@]4(C)[C@H]3CC[C@]12C [7KC, 7-ketocholesterol]
[1]
  Ki: 7.33 ± 1.76 µM

## CC(C)CCC[C@@H](C)[C@H]1CC[C@H]2[C@@H]3[C@@H](O)C=C4C[C@@H](O)CC[C@]4(C)[C@H]3CC[C@]12C [7βOHC, 7β-hydroxycholesterol]
[2]
  Ki: 0.91 ± 0.05 µM
